Experimental data: the NIST ThermoML archive (doi:10.1016/j.jct.2005.04.015)
± gives the expanded uncertainty stated by the source.

Experiment: excess molar enthalpy (molar enthalpy of mixing); xn = mol fraction of the nth substance listed
Settings: Liquid, Flow calorimetry

CCOC=O [ethyl methanoate] + CCCCCO
298.15 K
Settings	excess molar enthalpy [kcal/mol]
5000 kPa, x1 = 0.0502	0.0619 ± 0.00139
5000 kPa, x1 = 0.0995	0.145 ± 0.00311
5000 kPa, x1 = 0.1505	0.22 ± 0.00478
5000 kPa, x1 = 0.2006	0.279 ± 0.00598
5000 kPa, x1 = 0.2494	0.324 ± 0.00693
5000 kPa, x1 = 0.2998	0.361 ± 0.00765
5000 kPa, x1 = 0.3487	0.388 ± 0.00837
5000 kPa, x1 = 0.3992	0.404 ± 0.0086
5000 kPa, x1 = 0.4514	0.409 ± 0.0086
5000 kPa, x1 = 0.4984	0.41 ± 0.00884
5000 kPa, x1 = 0.5503	0.406 ± 0.0086
5000 kPa, x1 = 0.6002	0.392 ± 0.00837
5000 kPa, x1 = 0.6516	0.372 ± 0.00789
5000 kPa, x1 = 0.7007	0.346 ± 0.00741
5000 kPa, x1 = 0.7513	0.312 ± 0.00669
5000 kPa, x1 = 0.7992	0.269 ± 0.00574
5000 kPa, x1 = 0.8484	0.215 ± 0.00454
5000 kPa, x1 = 0.899	0.151 ± 0.00335
5000 kPa, x1 = 0.951	0.0755 ± 0.00167
10000 kPa, x1 = 0.05	0.0947 ± 0.00208
10000 kPa, x1 = 0.0992	0.177 ± 0.00382
10000 kPa, x1 = 0.1501	0.247 ± 0.00526
10000 kPa, x1 = 0.2	0.303 ± 0.00645
10000 kPa, x1 = 0.2487	0.345 ± 0.00741
10000 kPa, x1 = 0.2991	0.376 ± 0.00813
10000 kPa, x1 = 0.3511	0.403 ± 0.0086
10000 kPa, x1 = 0.3984	0.418 ± 0.00884
10000 kPa, x1 = 0.4505	0.426 ± 0.00908
10000 kPa, x1 = 0.501	0.426 ± 0.00908
10000 kPa, x1 = 0.5495	0.419 ± 0.00884
10000 kPa, x1 = 0.5994	0.406 ± 0.0086
10000 kPa, x1 = 0.6508	0.382 ± 0.00813
10000 kPa, x1 = 0.7	0.353 ± 0.00765
10000 kPa, x1 = 0.7506	0.311 ± 0.00669
10000 kPa, x1 = 0.7987	0.268 ± 0.00574
10000 kPa, x1 = 0.848	0.217 ± 0.00454
10000 kPa, x1 = 0.8987	0.154 ± 0.00335
10000 kPa, x1 = 0.9509	0.0804 ± 0.00177

CCOC=O [ethyl methanoate] + CCCCO
excess molar enthalpy [kcal/mol]
Settings	298.15 K	308.15 K
5000 kPa, x1 = 0.0499	0.0919 ± 0.00201	–
5000 kPa, x1 = 0.1005	0.17 ± 0.00359	–
5000 kPa, x1 = 0.1488	0.232 ± 0.00502	–
5000 kPa, x1 = 0.2008	0.285 ± 0.00598	–
5000 kPa, x1 = 0.2505	0.325 ± 0.00693	–
5000 kPa, x1 = 0.3009	0.355 ± 0.00765	–
5000 kPa, x1 = 0.3488	0.377 ± 0.00813	–
5000 kPa, x1 = 0.4006	0.393 ± 0.00837	–
5000 kPa, x1 = 0.4498	0.401 ± 0.0086	–
5000 kPa, x1 = 0.4997	0.399 ± 0.0086	–
5000 kPa, x1 = 0.6015	0.376 ± 0.00813	–
5000 kPa, x1 = 0.65	0.356 ± 0.00765	–
5000 kPa, x1 = 0.6991	0.33 ± 0.00693	–
5000 kPa, x1 = 0.7489	0.294 ± 0.00621	–
5000 kPa, x1 = 0.7993	0.252 ± 0.0055	–
5000 kPa, x1 = 0.8503	0.202 ± 0.0043	–
5000 kPa, x1 = 0.8983	0.148 ± 0.00311	–
5000 kPa, x1 = 0.9507	0.073 ± 0.0016	–
10000 kPa, x1 = 0.0497	0.0909 ± 0.00198	–
10000 kPa, x1 = 0.1002	0.169 ± 0.00359	–
10000 kPa, x1 = 0.1501	–	0.259 ± 0.0055
10000 kPa, x1 = 0.1514	0.233 ± 0.00502	–
10000 kPa, x1 = 0.1999	–	0.314 ± 0.00669
10000 kPa, x1 = 0.2003	0.281 ± 0.00598	–
10000 kPa, x1 = 0.2499	0.319 ± 0.00693	–
10000 kPa, x1 = 0.2504	–	0.359 ± 0.00765
10000 kPa, x1 = 0.2989	–	0.39 ± 0.00837
10000 kPa, x1 = 0.3002	0.348 ± 0.00741	–
10000 kPa, x1 = 0.3508	–	0.416 ± 0.00884
10000 kPa, x1 = 0.3513	0.372 ± 0.00789	–
10000 kPa, x1 = 0.3998	0.385 ± 0.00837	–
10000 kPa, x1 = 0.4007	–	0.431 ± 0.00908
10000 kPa, x1 = 0.449	0.393 ± 0.00837	–
10000 kPa, x1 = 0.4514	–	0.438 ± 0.00932
10000 kPa, x1 = 0.4989	0.393 ± 0.00837	–
10000 kPa, x1 = 0.4998	–	0.437 ± 0.00932
10000 kPa, x1 = 0.549	–	0.429 ± 0.00908
10000 kPa, x1 = 0.5494	0.385 ± 0.00813	–
10000 kPa, x1 = 0.5988	–	0.414 ± 0.00884
10000 kPa, x1 = 0.6007	0.371 ± 0.00789	–
10000 kPa, x1 = 0.6492	0.35 ± 0.00741	0.391 ± 0.00837
10000 kPa, x1 = 0.6984	0.324 ± 0.00693	–
10000 kPa, x1 = 0.7004	–	0.361 ± 0.00765
10000 kPa, x1 = 0.7482	0.288 ± 0.00621	–
10000 kPa, x1 = 0.7493	–	0.326 ± 0.00693
10000 kPa, x1 = 0.7987	0.244 ± 0.00526	0.281 ± 0.00598
10000 kPa, x1 = 0.8488	–	0.228 ± 0.00502
10000 kPa, x1 = 0.8499	0.193 ± 0.00406	–
10000 kPa, x1 = 0.8996	–	0.165 ± 0.00359
10000 kPa, x1 = 0.9018	0.134 ± 0.00287	–
10000 kPa, x1 = 0.9506	0.0751 ± 0.00165	–

CCOC=O [ethyl methanoate] + CCC(C)O
excess molar enthalpy [kcal/mol]
Settings	298.15 K	308.15 K
5000 kPa, x1 = 0.1504	0.234 ± 0.00502	–
5000 kPa, x1 = 0.1997	0.29 ± 0.00621	–
5000 kPa, x1 = 0.2497	0.336 ± 0.00717	–
5000 kPa, x1 = 0.3005	0.373 ± 0.00789	–
5000 kPa, x1 = 0.3501	0.4 ± 0.0086	–
5000 kPa, x1 = 0.4005	0.418 ± 0.00884	–
5000 kPa, x1 = 0.4497	0.429 ± 0.00908	–
5000 kPa, x1 = 0.4996	0.432 ± 0.00932	–
5000 kPa, x1 = 0.5502	0.427 ± 0.00908	–
5000 kPa, x1 = 0.5995	0.414 ± 0.00884	–
5000 kPa, x1 = 0.6496	0.394 ± 0.00837	–
5000 kPa, x1 = 0.7003	0.365 ± 0.00789	–
5000 kPa, x1 = 0.7496	0.328 ± 0.00693	–
5000 kPa, x1 = 0.7996	0.284 ± 0.00598	–
5000 kPa, x1 = 0.8996	0.156 ± 0.00335	–
5000 kPa, x1 = 0.9494	0.0812 ± 0.00179	–
10000 kPa, x1 = 0.0492	0.0843 ± 0.00184	–
10000 kPa, x1 = 0.0496	–	0.101 ± 0.0022
10000 kPa, x1 = 0.0992	0.17 ± 0.00359	–
10000 kPa, x1 = 0.1	–	0.197 ± 0.0043
10000 kPa, x1 = 0.15	0.243 ± 0.00526	–
10000 kPa, x1 = 0.1513	–	0.276 ± 0.00598
10000 kPa, x1 = 0.1985	0.3 ± 0.00645	–
10000 kPa, x1 = 0.2007	–	0.337 ± 0.00717
10000 kPa, x1 = 0.2509	0.348 ± 0.00741	0.386 ± 0.00837
10000 kPa, x1 = 0.2992	–	0.422 ± 0.00908
10000 kPa, x1 = 0.301	0.383 ± 0.00813	–
10000 kPa, x1 = 0.3487	0.407 ± 0.0086	–
10000 kPa, x1 = 0.351	–	0.451 ± 0.00956
10000 kPa, x1 = 0.4004	0.425 ± 0.00908	–
10000 kPa, x1 = 0.4008	–	0.47 ± 0.01
10000 kPa, x1 = 0.4495	0.436 ± 0.00932	–
10000 kPa, x1 = 0.4514	–	0.479 ± 0.0103
10000 kPa, x1 = 0.4994	0.439 ± 0.00932	–
10000 kPa, x1 = 0.4999	–	0.481 ± 0.0103
10000 kPa, x1 = 0.5491	–	0.475 ± 0.01
10000 kPa, x1 = 0.5501	0.433 ± 0.00932	–
10000 kPa, x1 = 0.599	–	0.46 ± 0.0098
10000 kPa, x1 = 0.6015	0.42 ± 0.00908	–
10000 kPa, x1 = 0.6497	–	0.436 ± 0.00932
10000 kPa, x1 = 0.6502	0.402 ± 0.0086	–
10000 kPa, x1 = 0.6996	0.373 ± 0.00789	–
10000 kPa, x1 = 0.7011	–	0.405 ± 0.0086
10000 kPa, x1 = 0.7497	0.331 ± 0.00717	–
10000 kPa, x1 = 0.7502	–	0.363 ± 0.00789
10000 kPa, x1 = 0.8	–	0.314 ± 0.00669
10000 kPa, x1 = 0.8006	0.284 ± 0.00598	–
10000 kPa, x1 = 0.8485	0.223 ± 0.00478	–
10000 kPa, x1 = 0.8506	–	0.255 ± 0.0055
10000 kPa, x1 = 0.8986	–	0.185 ± 0.00406
10000 kPa, x1 = 0.9008	0.154 ± 0.00335	–
10000 kPa, x1 = 0.95	0.0895 ± 0.00196	–
10000 kPa, x1 = 0.9506	–	0.0966 ± 0.0021
